Data as given in patent US20250290117A1, “MOLECULAR PHENOTYPIC ANTIMICROBIAL SUSCEPTIBILITY TESTING” (priority 2024, published 2025).

Tests used:
E. coli = test: Molecular phenotypic antimicrobial susceptibility test with direct PCR (no extraction DNA purification step); type: cell-based, Escherichia coli; details: E. coli isolate JJ1887, direct PCR; for Ct at Sensitive Breakpoint: Ct at control (average) 12.832; for Molecular Antimicrobial Susceptibility Result: at sensitive breakpoint
Protocol: (§1) Detection of Molecular Phenotypic Antimicrobial Susceptibility. Disclosed herein are the methods for the detection of phenotypic antimicrobial susceptibility via molecular methods. The present invention describes how a specimen 100 with a known microbial load is incubated and then exposed to a panel of antimicrobial agents to determine sensitivity (prevention of growth) or resistance (allowance of growth) to the specific antimicrobial agents tested utilizing molecular methods.
Sample Collection. Specimens 100 are collected from patients using sterile collection processes that are employed in routine clinical care. Specimens are transported to the testing facility in boric acid preservative. Specimens 100 are subsequently divided into a first sample 104 and a second sample 108.
Preparation of the Specimens for Testing. The specimens 100 are put through a pathogen identification process using PCR technology (e.g., using the first sample 104). The process for pathogen isolation includes steps of harvesting the pathogen (e.g., via centrifugation), isolating pathogen DNA via a DNA isolation and/or purification kit, and performing PCR on the pathogen DNA via PCR components (e.g., primers, enzymes, buffers) as would be known to the skilled artisan. Simultaneously, an additional aliquot of the same specimen (e.g., the second sample 108) is placed with liquid culture media and incubated for 4-6 hours. This aliquot is used for antimicrobial susceptibility testing if indicated based on the pathogen detection results. After pathogen identification is completed and if more than 10,000 cells/mL of bacteria (e.g., eligible bacteria) are detected in the source specimen, the second sample 108 then enters the antimicrobial susceptibility phase of testing. Specimens 100 with lower pathogen loads could also be utilized in the antibiotic susceptibility phase of testing with or without a longer incubation period.
(§2) Preparation of Antimicrobial Susceptibility Testing Plates. Antimicrobial solutions are prepared at known concentrations. The specific antimicrobials and their concentrations are selected based on the pathogen of interest and the described antimicrobial resistance breakpoints for that specimen pathogen and antimicrobial combination. These antimicrobials have been selected based on those commonly utilized by healthcare providers in routine clinical care for the specific type of suspected infection. The number and types of antimicrobials utilized can be customized based on the infection source, pathogen detected, patient-specific factors such as allergies or other health conditions (e.g., chronic kidney disease or concurrent medication use), or healthcare provider preferences such as antimicrobial availability or cost.
The antimicrobial solutions are prepared in liquid culture media (such as Muller Hinton Broth) to achieve the desired antimicrobial concentration and are then stored at −80° C. until use. For a given specimen, each antimicrobial is tested at a single or multiple antimicrobial concentration(s) which is its established breakpoints for sensitivity. The antimicrobial solutions are prepared and plated out for each specific pathogen. This allows ease of use on the day of testing after defrosting the plate 112. Table 1, which illustrates the results of molecular phenotypic antimicrobial susceptibility testing when more than one organism is present in the source specimen, provides an example of an antimicrobial plate 112 prepared for this purpose. Of note, control wells containing only culture media are present on all plates 112. This allows for evaluation of pathogen load when no antimicrobial is present.
Specimen Exposure to Antimicrobial Agents. The 1 mL aliquot of the specimen 100 previously mixed with culture media and incubated is obtained. Using optical density measurements as a guide, the specimen 100 is diluted to 0.5 McFarland. […]

S. aureus = test: as above; type: cell-based, Staphylococcus aureus; details: for Ct at Sensitive Breakpoint: S. aureus isolate NR-46412 HIP13170, Ct at control (average) 18.824; for Molecular Antimicrobial Susceptibility Result: S. aureus isolate NR-46412 HIP13170, at sensitive breakpoint
Protocol: as §1
Sample Collection. Specimens 100 are collected from patients using sterile collection processes that are employed in routine clinical care. Specimens are transported to the testing facility in boric acid preservative.
Preparation of the Specimens for Testing. […] The process for pathogen isolation includes steps of harvesting the pathogen (e.g., via centrifugation), isolating pathogen DNA via a DNA isolation and/or purification kit, and performing PCR on the pathogen DNA via PCR components (e.g., primers, enzymes, buffers) as would be known to the skilled artisan. […] This aliquot is used for antimicrobial susceptibility testing if indicated based on the pathogen detection results. […] Specimens 100 with lower pathogen loads could also be utilized in the antibiotic susceptibility phase of testing with or without a longer incubation period.
as §2
The antimicrobial solutions are prepared in liquid culture media (such as Muller Hinton Broth) to achieve the desired antimicrobial concentration and are then stored at −80° C. until use. For a given specimen, each antimicrobial is tested at a single or multiple antimicrobial concentration(s) which is its established breakpoints for sensitivity. The antimicrobial solutions are prepared and plated out for each specific pathogen. […] This allows for evaluation of pathogen load when no antimicrobial is present.
Specimen Exposure to Antimicrobial Agents. The 1 mL aliquot of the specimen 100 previously mixed with culture media and incubated is obtained. Using optical density measurements as a guide, the specimen 100 is diluted to 0.5 McFarland.
Antimicrobial exposure plates are typically placed into an incubator for 12-16 hours.
Nucleic Acid Amplification of Antimicrobial Agent Exposed Pathogens. The antimicrobial exposure plate is removed after the period of incubation. The specimen then undergoes a purification or lysis step. For example, the specimen may undergo a purification step (e.g., magnetic bead-based or other separation protocol to isolate genetic material). In another example, the specimen may undergo a cell lysis step. For example, buffer (e.g., lysis buffer) may be added and incubated in the thermal cycler for preparation for direct PCR. Next, the specimen may undergo a polymerase chain reaction (PCR) testing protocol, whereby a semi-quantitative PCR method is utilized. This may be completed either with or without a specific extraction protocol step. The pathogens can be individually targeted and detected, or a universal genetic sequence can be utilized to detect the antimicrobial susceptibility of the specimen as a whole.

## O=C(O)c1cn(C2CC2)c2cc(N3CCNCC3)c(F)cc2c1=O [Ciprofloxacin]
E. coli
  Ct at Sensitive Breakpoint: 12.215
  Molecular Antimicrobial Susceptibility Result: Resistant
S. aureus
  Ct at Sensitive Breakpoint: 18.586
  Molecular Antimicrobial Susceptibility Result: Resistant

## Trimethoprim/Sulfamethoxazole [TMP/SMX]
E. coli
  Ct at Sensitive Breakpoint: 13.414
  Molecular Antimicrobial Susceptibility Result: Resistant
S. aureus
  Ct at Sensitive Breakpoint: 28.63
  Molecular Antimicrobial Susceptibility Result: Sensitive (Antimicrobial wells with pathogen load detected below the control wells (typically >2 cycle thresholds later) may be reported as Sensitive)

## C[C@H]1COc2c(N3CCN(C)CC3)c(F)cc3c(=O)c(C(=O)O)cn1c23 [Levofloxacin]
E. coli
  Ct at Sensitive Breakpoint: 12.562
  Molecular Antimicrobial Susceptibility Result: Resistant
S. aureus
  Ct at Sensitive Breakpoint: 18.264
  Molecular Antimicrobial Susceptibility Result: Resistant
